Reference: patent US7919457B2, “Thrombin peptide derivative dimers” (Orthologic Corp., priority 2002, dated 2011)

Assays:
thrombin receptors = assay: Peptide competition for [125I]-alpha-thrombin binding to ME cells; details: for fold higher concentration required for 30% inhibition than p508-530: [125I]-alpha-thrombin binding; for Conc. at Maximal % Inhibition / Concentration Required for 30% Inhibition / Maximal % Inhibition: [125I]-alpha-thrombin binding to ME cells; for Maximal % Inhibition: at the conc. printed below the value
Source text: Thrombin peptide derivatives are believed to activate cells by binding to a high-affinity cell-surface thrombin receptor known as the non-proteolytically-activated thrombin receptor (hereinafter “NPAR”) (R. Horvat, et. al., J. Cell Sci. 108, 1155-1164, 1995). Compounds which stimulate NPAR are said to be thrombin receptor agonists. NPAR activation can be assayed based on the ability of molecules to stimulate cell proliferation when added to fibroblasts in the presence of submitogenic concentrations of thrombin or molecules that activate protein kinase C or compete with ^125I-thrombin for high affinity binding to thrombin receptors, as disclosed in U.S. Pat. Nos. 5,352,664 and 5,500,412 and in Glenn et al., J. Peptide Research 1:65 (1988).
To further identify regions of thrombin involved in high-affinity binding and generation of mitogenic signals, two peptides representing specific domains within p508-530 were tested. The first peptide represented residues 519 to 530 of the B-chain region of human prothrombin, a region of thrombin that is highly conserved among serine proteases. The second peptide represented residues 517 to 520 of prothrombin, a region of thrombin homologous to the fibronectin cell binding domain.
Both of these peptides were able to compete for 30% to 50% of the binding of [^125I]-alpha-thrombin to ME cells, but both required higher concentrations than was required with the initial peptide p508-530 (Table 1). For example, 30% inhibition of [^125I]-alpha-thrombin binding required 33- to 50-fold higher concentrations of p519-530 and p517-520 than p508-530, respectively. Thus, both of these peptides appear to interact with thrombin receptors, but at a lower affinity than p508-530. Because p517-520 is homologous to the fibronectin cell binding domain, a peptide having the sequence Arg-Gly-Ala-Ser (SEQ ID NO:13; the sequence of the fibronectin specific peptide) was also tested for its ability to compete for [^125I]-alpha-thrombin binding. […] Thus, the receptor for alpha-thrombin is not the same membrane protein that specifically interacts with fibronectin and causes the apparent growth promoting action of fibronectin.

NIL cells = details: increasing concentrations, quiescent NIL cells, 2 and 4 nM alpha-thrombin; FIG. 6 of U.S. Pat. No. 5,500,412; cited from earlier work

Substance	competition with [125I]-alpha-thrombin for binding (thrombin receptors; at a concentration of 1.3 μM)	fold higher concentration required for 30% inhibition than p508-530 (thrombin receptors)	Conc. at Maximal % Inhibition (thrombin receptors)	Concentration Required for 30% Inhibition (thrombin receptors)	Maximal % Inhibition (thrombin receptors)	effect on DNA synthesis (NIL cells)
Arg-Gly-Ala-Ser (RGAS; Fibronectin fragment)	did not compete	–	–	–	–	–
RGDA (Thrombin peptide fragment) [p517-520]	–	50 fold	(2.7 μM)	300 nM	50%	inhibited DNA synthesis
DACEGDSGGPFV (Thrombin peptide derivative) [p519-530]	–	33 fold	(800 nM)	200 nM	51%	enhanced DNA synthesis over a range of concentrations
